“And” between values parts separate entries of the source, which are not always exact repeats. Identical values can stand only once. “Also recorded” adds a separate entry of the source. Like-named read-outs stand apart in the source and are kept apart here.
Assays:
[1] = Phase 1 pharmacokinetic trial of CAP, plasma analysis by HPLC-MS/MS; conditions: for AUC(0-t): AUC(0-12)
Method: (§1) To each sample of participant plasma or urine, A. aerogenes sulfatase (2.5 µL; 10–20 units/mL), and E. coli glucuronidase (2.5 µL; ∼5,000–50,000 units/mL) were used to release the analytes from their sulfate and β-D-glucuronic acid esters (Phase II metabolites). For calibration and validation samples, aqueous glycerol (5 µL) was added to mimic the enzymatic hydrolysis. For all analyses, 1% ascorbic acid (10 µL) was added prior to sample work up to limit oxidation. Samples were incubated (37°C) for 20 min and placed on ice to halt enzymatic activity. […] The supernatant was filtered (0.22 µm spinfilter) at 10,000 g for 5 min at 4°C and used for analysis. To optimize peak shape during analysis, the concentration of organic solvent (sample filtrate) was adjusted to a 60:40 ratio with HPLC grade water for TT analysis and a 90:10 ratio with 1% aqueous formic acid for CQA analysis.
(§2) HPLC-MS/MS was performed at the Oregon Health & Science University’s (OHSU) Bioanalytical Shared Resource/Pharmacokinetics Core (Portland, OR, United States). […] Chromatographic separation was achieved using a Poroshell 120 EC18 column (3 mm id × 50 mm; 2.7 µ) and a Poroshell ultra high-performance liquid chromatography (UHPLC) guard column (3.0 mm i.d. Å∼ 5 mm, 2.7 μ) (Agilent, Santa Clara, CA, United States). The injection volume was 20 μL and flow rate was 0.42 mL/min. Gradient elution was performed using a mobile phase of solvent A (water containing 10 mM ammonium acetate and 0.02% ammonium hydroxide; pH 8.5) and solvent B (methanol). […] Chromatographic separation was achieved using a Zorbax Eclipse plus C8 Rapid resolution (4.6 i.d. Å∼ 150 mm, 3.5 μ) column with a Zorbax Eclipse plus C8 Rapid resolution (4.6 i.d. Å∼ 12.5 mm, 5 μ) guard column (Agilent, Santa Clara, CA, United States). The injection volume was 5 μL and flow rate of 0.8 mL/min. Gradient elution was performed using a mobile phase of solvent A (water containing 0.05% v/v acetic acid) and solvent B (acetonitrile with 0.05% v/v acetic acid).
(§3) Briefly, two in-person study visits occurred a minimum of two weeks and a maximum of four weeks apart in which participants orally consumed 2 or 4 g of CAP (in a randomized order) on an empty stomach. Total study duration was eight weeks including follow-up adverse event monitoring. All study procedures were identical for each visit except for the CAP dose administered. Randomization (to prevent tolerance effects) was performed using an arm equivalence design by the OHSU Research Pharmacy. All study personnel were blind to randomization allocation until all data analysis had been finalized. […] Participants fasted for 10 h, excluding water, prior to each study visit and for 2 h after consuming the study intervention to standardize gastrointestinal transit time and minimize food effects. During study visits, participants were provided low-phytochemical snacks and meals by the OCTRI CTRC’s Bionutrition Unit devoid of the foods outlined in Section 2.5. At each study visit, a peripheral intravenous catheter was placed in the arm to allow for repeat blood sampling. Prior to CAP intake, 20 mL of baseline blood and 50 mL of baseline urine were collected. […] Plasma aliquots (2 mL) were frozen and stored at -80°C until analysis. […] A 50 mL aliquot was retained and frozen at −80°C for renal excretion analysis.
(§4) Sample preparation and analysis: Plasma and urine sample preparation and analyte quantification by LC-MS/MS were performed in duplicate for each time point and visit (Sections 2.2–2.4). Due to the possibility of residual interference from the participant’s diet and unique, individual matrix effects, calibration curves were generated for each participant using their baseline plasma collected at the corresponding visit.

[2] = Method: as §1, §2, §3, §4
[3] = Analyte storage stability in human urine
[4] = Analyte storage stability in human plasma
[5] = cited from earlier work; for Cmax: Songvut et al., 2021
[6] = older adults on cholinesterase inhibitors, ref Wright et al., 2022, cited from earlier work
[7] = cited from earlier work
[8] = human, 2 weeks
[9] = single oral 2 g CAW (CAP), n = 7, mean (SEM)
[10] = single oral 4 g CAW (CAP), n = 7, mean (SEM)
[11] = condition 1 long-term storage at −80°C, low concentration
[12] = condition 1 long-term storage at -80°C, low concentration
[13] = condition 1 long-term storage at −80°C, medium concentration
[14] = condition 2 freeze-thaw, medium concentration
[15] = condition 2 three freeze-thaw cycles, low concentration
[16] = encapsulated ECa 233, healthy adults, ref Songvut et al., 2019
[17] = condition 2 freeze-thaw, high concentration
[18] = both, human, plasma, po, 2 g, single oral 2 g CAW (CAP), n = 7, mean (SEM)
[19] = both, human, plasma, po, 2 g, Cmax, single oral 2 g CAW (CAP), healthy older adults, n = 7, plasma, mean (SEM), ^ = below LLoQ
[20] = both, human, plasma, po, 2 g, T1/2, single oral 2 g CAW (CAP), n = 7, mean (SEM)
[21] = both, human, plasma, po, 2 g, Tmax, single oral 2 g CAW (CAP), n = 7, mean (SEM)
[22] = both, human, plasma, po, 4 g, single oral 4 g CAW (CAP), n = 7, mean (SEM)
[23] = both, human, plasma, po, 4 g, Cmax, single oral 4 g CAW (CAP), healthy older adults, n = 7, plasma, mean (SEM), ^ = below LLoQ
[24] = both, human, plasma, po, 4 g, T1/2, single oral 4 g CAW (CAP), n = 7, mean (SEM)
[25] = both, human, plasma, po, 4 g, Tmax, single oral 4 g CAW (CAP), n = 7, mean (SEM)
[26] = condition 3 overnight storage at 4°C, low concentration
[27] = condition 2 three freeze-thaw cycles, medium concentration
[28] = condition 3 4°C for 24 h, medium concentration
[29] = condition 2 freeze-thaw, low concentration

Row | Compound | Total urinary excretion (12 hr) [2, 9] | Total urinary excretion (12 hr) [2, 10] | Stability, percent of nominal concentration [3, 11] [%] | Stability, percent of nominal concentration [4, 12] [%] | T1/2 ([1]; both, human, in vivo, po) | Tmax ([1]; both, human, in vivo, po) | half-life ([1]; both, human, in vivo, po, T1/2) [h] | Tmax ([1]; both, human, in vivo, po, Tmax) [h] | Stability, percent of nominal concentration [3, 13] [%] | Stability, percent of nominal concentration [3, 14] [%] | Stability, percent of nominal concentration [4, 15] [%] | AUC(0-t) [1, 18] [ng·h/mL] | Cmax [1, 19] [ng/mL] | half-life [1, 20] [h] | Tmax [1, 21] [h] | AUC(0-t) [1, 22] [ng·h/mL] | Cmax [1, 23] [ng/mL] | half-life [1, 24] [h] | other results
1 | COc1cc(/C=C/C(=O)O)ccc1O [FA, ferulic acid] | 146.8 (33.5) µg | 137.4 (24.6) µg | 81 | 129 |  |  |  |  |  |  |  |  |  |  |  |  |  |  | Cmax ([1]; single oral 2 g CAW (CAP), healthy older adults, n = 7, plasma, mean (SEM), ^ = below LLoQ): 1.5 (0.3) ng/mL; AUC(0-12) [1, 9]: 11.3 (2.9) ng/mL*hr; T1/2 [1, 9]: 14.1 (3.9) hr; Tmax [1, 9]: 5.9 (1.3) hr; Cmax ([1]; single oral 4 g CAW (CAP), healthy older adults, n = 7, plasma, mean (SEM), ^ = below LLoQ): 1.5 (0.6) ng/mL; AUC(0-12) [1, 10]: 9.9 (2.8) ng/mL*hr; T1/2 [1, 10]: 2.9 (1.3) hr; Tmax [1, 10]: 7.1 (1.2) hr
2 | COc1cc(CCC(=O)O)ccc1O [DHFA, Dihydroferulic acid] |  |  | 79 | 81 | 6.6 (3.8) hr | 5.7 (1.5) hr | 7.1 | 5.9 | 67 | 84 | 97 |  |  |  |  |  |  |  | AUC(0-12) ([1]; both, human, in vivo, po): 41.0 (12.7) ng/mL*hr; Cmax ([1]; both, human, in vivo, po): 8.1 (2.9) ng/mL; AUC(0-t) ([1]; both, human, in vivo, po): 35.6 ng·h/mL; Cmax ([1]; both, human, in vivo, po, Cmax): 9.3 ng/mL
3 | madecassoside [MS] | Not detected | Not detected | 57 |  |  |  |  |  | 84 | 78 |  |  |  |  |  |  |  |  | Detection in plasma ([1]; after 2 or 4 g CAP, oral): not detected; also recorded: below the LoD; Tmax [5, 16]: 1 to 2 h; Stability, percent of nominal concentration [3, 17]: 82%
4 | O=C(O)CCc1ccc(O)c(O)c1 [DHCA, Dihydrocaffeic acid] | 26.8 (10.0) µg | 24.8 (6.1) µg | 70 | 75 |  |  |  |  |  |  |  | 1.7 | 0.4 | 1.8 | 6.1 | 1.9 | 0.5 | 1.9 | Tmax [1, 25]: 3.2 h; Stability, percent of nominal concentration [3, 26]: 106%; Stability, percent of nominal concentration ([4]; condition 1 long-term storage at -80°C, medium concentration): 75%; Stability, percent of nominal concentration ([4]; condition 2 three freeze-thaw cycles, high concentration): 75%; Stability, percent of nominal concentration [4, 27]: 51%; Stability, percent of nominal concentration [4, 28]: 23%
5 | O=C(O)/C=C/c1ccc(O)c(O)c1 [CA, caffeic acid] |  |  | 211 |  | 10.3 (3.7) hr | 4.5 (1.6) hr | 8.4 | 5.3 |  | 129 | 108 |  |  |  |  |  |  |  | AUC(0-12) ([1]; both, human, in vivo, po): 2.4 (0.6) ng/mL*hr; AUC(0-t) ([1]; both, human, in vivo, po): 1.8 ng·h/mL; Cmax ([1]; both, human, in vivo, po, Cmax): 0.5 ng/mL; Stability, percent of nominal concentration [3, 26]: 224%; Stability, percent of nominal concentration ([3]; condition 3 overnight storage at 4°C, medium concentration): 86%; Stability, percent of nominal concentration ([4]; condition 3 4°C for 24 h, low concentration): 63%; Stability, percent of nominal concentration [4, 28]: 75%
6 | C[C@H]1[C@H](C)CC[C@]2(C(=O)O)CC[C@]3(C)C(=CC[C@@H]4[C@@]5(C)C[C@@H](O)[C@H](O)[C@@](C)(CO)[C@@H]5[C@H](O)C[C@]43C)[C@H]12 [MA, madecassic acid] |  |  |  |  |  | 2.2 to 2.8 h |  |  |  |  | 100 |  |  |  |  |  |  |  | Cmax ([1]; both, human, in vivo, po): 107 to 197 ng/mL; Cmax ([1]; both, human, in vivo, po, 2 g): 210 nM and 107 ng/mL; Tmax ([1]; both, human, in vivo, po, 2 g): 2.4 h; half-life ([1]; both, human, in vivo, po, 2 g): 9.2 h; Cmax ([1]; both, human, in vivo, po, 4 g): 390 nM and 197 ng/mL; Tmax ([1]; both, human, in vivo, po, 4 g): 2.7 h; half-life ([1]; both, human, in vivo, po, 4 g): 6.7 h; Cmax ([6]; 2 g CAP): 38 ng/mL; Cmax ([6]; 4 g CAP): 63 ng/mL; Cmax ([5]; ECa 233 250 mg, ref Songvut et al., 2019): 40 ng/mL; Cmax ([5]; ECa 233 500 mg, ref Songvut et al., 2019): 52 ng/mL; Tmax [5, 16]: 1.5 h; Cmax ([5]; read-out: Cmax (molar), ECa 233 250 mg, ref Songvut et al., 2019): 80 nM; Cmax ([5]; read-out: Cmax (molar), ECa 233 500 mg, ref Songvut et al., 2019): 100 nM; Tmax ([7]; capsular form, ref Grimaldi et al., 1990, Leng et al., 2013, Wright et al., 2022): 4 to 4.5 h; Stability, percent of nominal concentration [3, 17]: 80%
7 | O=C(O)CCc1cccc(O)c1 [HPP, 3-(3-hydroxyphenyl) propionic acid] | 223.4 (76.7) µg | 247.9 (73.6) µg | 48 |  |  |  |  |  | 81 |  |  | 56.8 | 5.8 | 5 | 7.4 | 50.2 | 10.6 | 2.6 | Tmax [1, 25]: 5.7 h; Stability, percent of nominal concentration [3, 29]: 96%
8 | COc1ccc(/C=C/C(=O)O)cc1O [IFA, isoferulic acid] | 65.9 (23.1) µg |  |  |  |  |  |  |  |  | 80 |  | 5.3 | 1.5 | 7 | 2.4 | 7.4 | 1.5 | 3.5 | Stability, percent of nominal concentration ([3]; condition 1 long-term storage at −80°C, high concentration): 84%; Stability, percent of nominal concentration [3, 29]: less than 115%; Stability, percent of nominal concentration [4, 27]: 117%
9 | C[C@H]1[C@H](C)CC[C@]2(C(=O)O)CC[C@]3(C)C(=CC[C@@H]4[C@@]5(C)C[C@@H](O)[C@H](O)[C@@](C)(CO)[C@@H]5CC[C@]43C)[C@H]12 [AA, asiatic acid] |  |  |  |  | 4.9 (1.3) hr | 2.8 (0.2) hr | 4.1 | 2.2 |  |  |  |  |  |  |  |  |  |  | Cmax ([1]; both, human, in vivo, po, Cmax, range over both doses): 174 to 372 ng/mL; Tmax ([1]; both, human, in vivo, po, Tmax, range over both doses): 2.2 to 2.8 h; Total urinary excretion (12 hr) ([2]; in vivo, po): Not detected; Stability, percent of nominal concentration [8]: 111%; Cmax ([6]; 2 g CAP): 123 ng/mL; Cmax ([6]; 4 g CAP): 259 ng/mL; Tmax ([5]; human, in vivo): 1.5 h; Tmax ([7]; in vivo): 4 to 4.5 h

Reference: article PMC10481538, “Bioanalytical method validation and application to a phase 1, double-blind, randomized pharmacokinetic trial of a standardized Centella asiatica (L.) Urban water extract product in healthy older adults” (Frontiers in Pharmacology, 2023)
